Source: patent EP0154117B1 (dated 1985)

Experiments:
B6 Lymphocytes [1] = experiment: Proliferative response of mouse lymphocytes to alloantigens in mixed lymphocyte cultures (MLC); format: cell-based; details: 10-^2 and 10^-4 µg/ml; one-way, 5-day MLC
[2] = tested on: alloreactive cytolytic T lymphocytes (CTL); experiment: Induction of alloreactive cytolytic T lymphocytes (CTL) in MLC, 51Cr-release microcytotoxicity assay with P815 target cells; format: cell-based, mouse; details: for minimum doses required to cause a significant effect (CTL generation in MLC): compared to control CTL generated in drug-free MLC
B6 Mice [3] = experiment: Immunosuppression in vivo: lymphocytes from treated mice stimulated in MLC and tested for CTL cytotoxicity; set-up: species or system mouse; details: for cytotoxicity of effector cells from treated mice: after 30 days of treatment
B6 Mice [4] = experiment: Suppressor cells in treated mice: lymphocytes of treated mice added to a conventional MLC; format: in vivo, mouse; details: 3 mg/kg; lymphocytes obtained 5 weeks later; 1-5x10^6 cells added to MLC; dose related
B6 Lymphocytes [5] = experiment: Proliferative responses of lymphocytes to Con A and LPS (3H-TdR incorporation); details: 1 to 10-^2 µg/ml

SMILES	proliferation of B6 lymphocytes stimulated by D2 lymphocytes (B6 Lymphocytes [1])	generation of CTL ([2]; 1 to 10-^4 µg/ml in MLC)	% lysis (CTL activity) ([2]; 10-^3 µg/ml added 2 days after setting up MLC, p < 0.001 vs control (% lysis = 52.0))	% lysis (CTL activity) ([2]; 10-^3 µg/ml added at the same time as initiation of MLC, control % lysis = 52.0)	% lysis (CTL activity) ([2]; 10-^3 µg/ml added one day after initiation of MLC, control % lysis = 52.0)	generation of CTL ([2]; 10-^4 mcg/ml)	% lysis (CTL activity) ([2]; 10-^5 mcg/mi added to MLC, p < 0.01 vs control CTL (% lysis = 45.7), 5 days)	duration of the suppressive effect (suppression after removal of compound) ([2]; 10^-3 µg/ml, compound removed from 1 MLC each day by washing, CTL tested after five days)	CTL generation of lymphocytes from treated mice (B6 Mice [3]; 0.3 mg/kg, day 23 post treatment)	CTL generation by lymphocytes from drug-treated mice (B6 Mice [3]; 3 mg/kg i.p., lymphocytes prepared 2 weeks later, 5-day MLC, all E:T ratios tested)	cytotoxicity of effector cells from treated mice (B6 Mice [3]; 0.3 and 0.75 mg/kg)	CTL activity of lymphocytes from treated mice (B6 Mice [3]; 0.3 to 3.0 mg/kg, day 10 after treatment)	cytotoxicity of effector cells from treated mice (B6 Mice [3]; 1.5 an 3.0 mg/kg)	effect of cells from drug treated mice on CTL generation by normal lymphocytes (B6 Mice [4])	proliferation of these cells (Con A or LPS stimulated) (B6 Lymphocytes [5])	minimum doses required to cause a significant effect (CTL generation in MLC) [2]
Cl.Cl.NCCNc1ccc(NCCN)c2c1C(=O)c1c(O)ccc(O)c1C2=O	significantly prevented	complete failure to generate CTL	22.0%	2.7%	6.4%	consistent failure to generate CTL	37.0%	irreversible	typical CTL generation was evident	failed to become effective CTL	normal level of cytotoxicity	no CTL activity	still unable to do so	significantly prevented normal lymphocytes from becoming effective CTL	completely abolished	–
COc1cccc2c1C(=O)c1c(O)c3c(c(O)c1C2=O)C[C@@](O)(C(=O)CO)C[C@@H]3O[C@H]1C[C@H](N)[C@H](O)[C@H](C)O1 [Adriamycin, reference compound]	–	–	–	–	–	–	–	–	–	–	–	–	–	–	–	10^-1 µg/ml
Cl.Cl.O=C1c2c(O)ccc(O)c2C(=O)c2c(NCCNCCO)ccc(NCCNCCO)c21 [Novantrone^TM, reference compound]	–	–	–	–	–	–	–	–	–	–	–	–	–	–	–	10^-3 µg/ml
